This is an account of results in patent US12459931B2, “Benzothiophene derivative regulator, preparation method therefor and use thereof” (Shanghai Hansoh Biomedical Co., Ltd., priority 2019, dated 2025).

Each structure is given as a SMILES string. Where two headings read alike, the source gives them in different places.

The target in data set [1] is Human Dopamine D3 Receptor (Homo sapiens (Human), UniProt P35462). Nature of the data set: Radioligand-receptor binding assay, dopamine D3 receptor ([3H]-methylspiperone). The note with it: [3H]-methylspiperone 0.5 nM, human D3 receptor membrane. As to the method:
Determination of the Binding Ability of the Compounds of the Present Invention to Dopamine D3 Receptor
The objective of this test example is to determine the affinity of the compounds for dopamine D3 receptor.
Assay buffer: 50 mM Tris-HCl pH 7.4, 10 mM MgCl2; wash solution: 50 mM Tris-HCl pH 7.4, stored at 4° C.; 0.5% PEI solution: 0.5 g PEI dissolve in 100 mL ddH2O, 4° C. storage of spare.
(§1) 5 μL of the test compounds (0.005 nM to 100 nM, 10 concentrations in total) and 100 μL of buffer were added to a 96-well assay plate. 1 μL of cell membrane and 300 μL of buffer were added to each well, and the plate was shaken at 600 rpm for 5 min. A mixed solution of 100 μL of buffer and [^3H]-methylspiperone (the final concentration was 0.5 nM) was added to each well. The plate was shaken at 600 rpm for 5 min, and incubated at 27° C. for 30 min. The […]-96 GF/B filter plate pre-incubated with 0.5% PEI for 1 h was washed twice with the buffer (1 mL/well). The cell membrane suspension was added to the […]-96 GF/B filter plate, washed 4 times, and incubated at 55° C. for 10 min. 40 μL of ULTIMA GOLD was added to each well, and liquid scintillation counting was carried out.
(§2) The CPM (Counts per minute) values were determined by TopCount. […] The 10 concentrations of the compound were from 100 nM to 0.005 nM after 3-fold dilution of the reaction system. The percent inhibition rate and ten-point concentration data were fitted to the parametric nonlinear logistic equation by using GraphPad prism to calculate the IC50 values of the compound.

Data set [2] in a line: Pharmacokinetic assay in Balb/c mice (plasma and brain tissue). The class given is in vivo. The following applies: p.o. 5 mg/kg; for AUC(0-t) / AUC(0-inf) / Cmax / MRT / half-life: male, Balb/c, mouse, po; for AUC(0-t): read-out: Area under curve AUC0-t; for AUC(0-inf): read-out: Area under curve AUC0-∞; for Cmax: read-out: Plasma concentration Cmax; for MRT: read-out: Average residence time MRT; for half-life: read-out: Half life t1/2 (converted). The method, then:
III. Pharmacokinetic Assay in Balb/c Mice
Balb/c mice were used as test animals. The pharmacokinetic behavior of the compounds of Examples of the present invention was studied in mouse body (plasma and brain tissue) by orally administration at a dose of 5 mg/kg.
Male Balb/c mice (12 mice per group), purchased from Shanghai Jiesijie Laboratory Animal Co., LTD, with Certificate No.: SCXK (Shanghai) 2013-0006 N0.311620400001794. • 2.3 Formulation of the preparation: […]
The test compound was dissolved in 0.5% CMC-Na (1% Tween80) by sonication to formulate a clear solution or homogeneous suspension. • 2.4 Administration:
After an overnight fast, male Balb/c mice (12 mice per group) were administered p.o. with the test compound at a dose of 5 mg/kg and a volume of 10 mL/kg. • 2.5 Sample collection:
0.2 mL of blood was taken from the heart of the mouse before administration and at 1, 2, 4, 8 and 24 hours after administration, and the mice were sacrificed with CO2. The samples were stored in EDTA-K2 tubes, and centrifuged for 6 minutes at 4° C., 6000 rpm to separate the plasma. The plasma samples were stored at −80° C. Whole brain tissue was taken out, weighed, placed in a 2 mL centrifuge tube, and stored at −80° C. • 2.6 Sample process:
1) 160 μL of acetonitrile was added to 40 μL of the plasma sample for precipitation, and then the mixture was centrifuged at 3500×g for 5 to 20 minutes.
2) 90 μL of acetonitrile containing internal standard (100 ng/mL) was added to 30 μL of the plasma and brain homogenate sample for precipitation, and then the mixture was centrifuged at 13000 rpm for 8 minutes.
3) 70 μL of water was added to 70 μL of the treated supernatant and mixed by vortex for 10 minutes. 20 μL of the solution was taken to analyze the concentration of the test compound by LC/MS/MS. LC/MS/MS analytical instrument: AB Sciex API 4000 Qtrap. • 2.7 Liquid chromatography analysis: • Liquid chromatography condition: Shimadzu LC-20AD pump • Chromatographic column: Agilent ZORBAX XDB-C18 (50×2.1 mm, 3.5 μm); Mobile phase: Eluent A was 0.1% formic acid in water, and Eluent B was acetonitrile • Flow rate: 0.4 mL/min • Elution time: 0-4.0 minutes the eluent is as follows:
The main parameters of pharmacokinetics were calculated by WinNonlin 6.1.

Another data set has as its target 5-HT2A receptor (Homo sapiens (Human), UniProt P28223). Nature of the data set: Radioligand-receptor binding assay, 5-HT2A receptor ([3H]-Ketanserin). The note with it: [3H]-Ketanserin 2 nM, human 5-HT2A receptor membrane; read-out: 5HT-2A binding activity IC50. As to the method: Determination of the Binding Ability of the Compounds of the Present Invention to 5-HT2A Receptor
The objective of this test example is to determine the affinity of the compounds for 5-HT2A receptor.
Assay buffer: 50 mM Tris-HCl pH 7.4, 4 mM CaCl2); wash solution: 50 mM Tris-HCl pH 7.4, stored at 4° C.; 0.5% PEI solution: 0.5 g PEI dissolve in 100 mL ddH2O, 4° C. storage of spare.
as §1, with “plate. 1.5” for “plate. 1”, “300 L” for “300 μL”, “each well. The” for “each well, and the”, “and [^3H]-Ketanserin” for “and [^3H]-methylspiperone”, “was 2” for “was 0.5”
as §2

The next data set deals with D3 receptor (Homo sapiens (Human), UniProt P35462). The data set can be described thus: Effect on cAMP content in cells stably expressing D3 receptors (CHO-D3). The note with it: forskolin stimulated, activation. Format: cell-based. As to the method:
To determine the activation effect of the compounds on D3 receptor.
3. The experimental buffer (1*HBSS, 0.1% BSA, 20 mM HEPES and 500 μM IBMX) was prepared. The compound was diluted with the buffer. 2.5 μL of the compound solution was added to each well, and the plate was incubated at 37° C. for 10 minutes. The forskolin was diluted to 8 μM (8*) with the experimental buffer. […] The reaction plate was centrifuged at 200 g for 30 s at room temperature, and left to stand at 25° C. for 1 h. Data was collected using Envision.

Sequence of Human Dopamine D3 Receptor (P35462 whole entry): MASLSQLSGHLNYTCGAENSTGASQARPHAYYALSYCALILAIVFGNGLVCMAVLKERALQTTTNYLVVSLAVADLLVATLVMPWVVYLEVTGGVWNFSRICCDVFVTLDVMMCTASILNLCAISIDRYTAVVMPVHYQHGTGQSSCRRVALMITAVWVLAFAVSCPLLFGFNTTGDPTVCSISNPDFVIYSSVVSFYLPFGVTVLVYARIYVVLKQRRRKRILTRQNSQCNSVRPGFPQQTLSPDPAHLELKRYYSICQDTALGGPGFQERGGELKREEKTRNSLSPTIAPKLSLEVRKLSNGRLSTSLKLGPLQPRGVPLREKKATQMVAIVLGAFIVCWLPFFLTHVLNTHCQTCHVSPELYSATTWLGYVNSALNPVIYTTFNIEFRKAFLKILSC
Sequence of 5-HT2A receptor (P28223 whole entry): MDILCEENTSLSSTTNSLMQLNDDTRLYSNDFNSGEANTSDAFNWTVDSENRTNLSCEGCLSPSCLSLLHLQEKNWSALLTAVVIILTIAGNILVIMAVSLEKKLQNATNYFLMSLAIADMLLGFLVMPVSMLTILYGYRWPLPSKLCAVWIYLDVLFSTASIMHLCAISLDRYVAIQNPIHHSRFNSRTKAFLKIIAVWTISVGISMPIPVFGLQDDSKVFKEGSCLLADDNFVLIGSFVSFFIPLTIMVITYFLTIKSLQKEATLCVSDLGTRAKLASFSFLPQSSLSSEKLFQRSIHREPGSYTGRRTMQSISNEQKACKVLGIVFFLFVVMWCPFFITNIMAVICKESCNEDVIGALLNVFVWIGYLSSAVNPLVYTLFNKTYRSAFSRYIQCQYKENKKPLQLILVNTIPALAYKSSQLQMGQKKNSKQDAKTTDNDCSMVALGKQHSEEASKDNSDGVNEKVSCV
Sequence of D3 receptor (P35462 whole entry): as the sequence (P35462 whole entry) above

By IC50 is commonly meant the concentration that inhibits the measured activity by half. The MRT is a mean duration of stay, worked out from the concentration-time curve. The compound `CC(C)(O)C(=O)N[C@H]1CC[C@H](CCN2CCN(c3cccc4sccc34)CC2)CC1` [Example 41, N-(Trans-4-(2-(4-(benzo[b]thiophen-4-yl)piperazin-1-yl)ethyl)cyclohexyl)-2-hydroxy-2-methylpropanamide] showed an IC50 in data set [1] of 1.03 nM. Besides, in data set [2] (Brain), the Peak time tmax amounted to 1 h, the AUC(0-t) stood at 8.12 µg·h/mL, the AUC(0-inf) came to 13 µg·h/mL and the Cmax turned out to be 0.731 µg/mL. In addition, in data set [2] (Plasma), the Peak time tmax was 1 h, the AUC(0-t) was 5.21 µg·h/mL, the AUC(0-inf) is 6.37 µg·h/mL and the MRT came out at 13.5 h. In data set [2] (Plasma), the half-life is 10.2 h and the Cmax was 0.452 µg/mL. Besides, the IC50 on 5-HT2A receptor turned out to be 0.43 nM.

A word on the EC50: it is the concentration at which the effect is half-maximal. Higher therefore signals weaker potency. On to `O=C(N[C@H]1CC[C@H](CCN2CCN(c3cccc4sccc34)CC2)CC1)C1(O)CC1` [Example 42, N-(Trans-4-(2-(4-(benzo[b]thiophen-4-yl)piperazin-1-yl)ethyl)cyclohexyl)-1-hydroxycyclopropane-1-carboxamide], for which the IC50 in data set [1] was 0.2 nM. The compound further displayed an EC50 on D3 receptor of 1.1 nM. In data set [2] (Brain), the Peak time tmax was found to be 1 h, the AUC(0-t) is 3.61 µg·h/mL, the AUC(0-inf) worked out at 3.89 µg·h/mL and the Cmax is 0.33 µg/mL. In addition, in data set [2] (Plasma), the Peak time tmax amounted to 1 h, the AUC(0-t) was found to be 4.24 µg·h/mL, the AUC(0-inf) was 4.37 µg·h/mL and the MRT was determined as 6.84 h. For the same compound, in data set [2] (Plasma), the half-life is 4.84 h and the Cmax amounted to 0.477 µg/mL. Also, the 50% inhibitory concentration (IC50) at 5-HT2A receptor is 0.26 nM.
